# Counter-ions that a name gives are not always drawn.
# Assays:
# Format in all cases: in vivo, human
# [1] = system: sensorineural hearing loss caused by birth injury; assay: Treatment for sensorineural hearing loss caused by birth injury
# Method: Research was conducted with 4 patients whose hearing loss was caused by birth injury. Two patients were twin boys […] and two patients […].
# The twins had sensorineural hearing loss in both ears. […] The course was repeated in 1.5 months, and the third course was conducted in 3 months.
# Treatment was then conducted according to the following pattern.
# The courses were repeated every three months for three years. They received 8 and 10 courses respectively.
# [2] = system: hearing loss caused by toxoplasmosis; assay: Treatment for neuropathy of CN VIII: hearing loss caused by toxoplasmosis; details: patient
# Method: This research involved observation of neuropathy in the vestibulocochlear nerve of 17 patients.
# In two patients, the hearing loss was caused by toxoplasmosis. In one patient, inborn toxoplasmosis was diagnosed. The other patient developed toxoplasmosis from an infected cat.
# The second course was conducted in three months. After four courses of treatment, their hearing improved by 25 dB.
# After 5 courses of treatment, their hearing improved by 30 dB.
# [3] = system: sensorineural hearing loss of vascular genesis; assay: Treatment for sensorineural hearing loss of vascular genesis
# Method: A group of 24 patients at the age of 50-65 were treated for sensorineural hearing loss. […] After a 7-10 days break, the course was repeated. […] The hearing in one ear improved by 5-10 dB.
# So the second intake of the drug at night was withdrawn. […] After that, they refused to continue the treatment for the lack of desired effect.
# Three courses of treatment were conducted. […] Then, the patients terminated the treatment because of its high cost.
# [4] = system: sensorineural hearing loss caused by Usher syndrome; assay: Treatment for sensorineural hearing loss caused by Usher syndrome
# Method: A group of 4 children of 5-6 years old with Usher's syndrome were studied. They manifested profound hearing impairment of 65-75 dB alongside progressive loss of vision due to retinitis pigmentosa. These children had been previously refused treatment on the account of their disease being genetic.
# In 1.5 months there was an improvement in hearing by 5 dB. […] The third course was conducted in three months according to the same pattern. After that the hearing improved by 10-15 dB.
# PIRIBEDIL® is a vasodilative drug used for treating vision and hearing disorders. Applicant observed that the hearing was improved by 5-10 dB. The patients were recommended to have a follow up treatment every 6 months according to the same pattern.
# [5] = system: neurinomas of cerebellopontine angle; assay: Treatment for neurinomas of cerebellopontine angle
# Description: Neurinomas of the cerebropontine angle—7 patients (2 patients and 5 people from 35 to 45 years of age).
# In all 7 patients, the tumor was diagnosed late and was of a considerable size. In spite of the fact that all of them had consulted doctors, they were correctly diagnosed only after the appearance of the symptoms of damage to the facial nerve, ataxy, and complete hearing loss. Some of the patients underwent neurosurgery, including partial removal of the tumor followed by chemo- and radio-therapy. The patients manifested paralysis of the facial nerve, optic atrophy, and tinnitus, dizziness and paresis or hemisyndrom of different degrees.
# After the operations, some of the patients had severe complications. […] Disorders of differentiation of words, especially in noisy environments. Some patients manifested convulsions and severe headaches. The encephalogram registered readiness for convulsions. Such patients initially underwent anticonvulsant therapy with CARBAMAZEPINE® 100 mg two times a day.
# The course of treatment was repeated every 3-6 months. […] The patients started to differentiate shapes of objects, which helped them to orient in the surroundings and to come to the clinic without a guide.
# [6] = system: minimal hearing loss; assay: Treatment for minimal hearing loss
# Description: A group of patients consisting of 56 children was selected. 29 children—4 years of age and 27 children—5-6 years of age.
# Minimal hearing disorders were discovered when these children were investigated for speech development delay.
# The course of treatment was repeated in three months. Depending on the degree of the impairment and its cause, the patients received from 3 to 8 courses of treatment.
# [7] = system: sensorineural hearing loss caused by hyperbilirubinemia; assay: Treatment for sensorineural hearing loss caused by hyperbilirubinemia
# Method: Research was conducted on four patients (age 2 to 5 years) who had hyperbilirubinemia soon after birth. The hearing impairment was diagnosed when the children were examined and treated for hyperkinetic cerebral palsy. The children were not able to walk.
# After the treatment, their hearing improved by 10-15 dB.
# [8] = system: meningiomas; assay: Treatment of patients with meningiomas; details: 1.25 mg once a day, three courses
# Method: Applicant observed two patients with meningiomas. Their tumors were of a considerable size. These patients had undergone surgery, which was conducted in two stages, and was followed by chemo- and radiation therapy. These patients were practically blind, and had bilateral optic atrophy, their hearing function was impaired by 30-40 dB, they were not able to differentiate words in noisy environments. They also manifested convulsive attacks up to 15 times a day. They went through the anticonvulsant therapy, after which their convulsions occurred only for 2 times a month. […] In a month and a half, the treatment was conducted according to the following pattern. 1.25 mg once a day for 7 days, followed by a 5 day break. […] This course was repeated in 3 months. The third course was conducted in 6 months. […] These improvements satisfied the patients and no further treatment was conducted.
# [9] = system: blind mute and deaf children; assay: galanthamine hydrobromide injections in blind mute and deaf children; details: one of 3 patients, 7-9 years old; 0.1 ml of 0.5% solution per year of life, 15-20 injections
# Method: 25 years ago, applicant conducted a study of a small group of blind mute and deaf children (3 patients) at the age of 7-9 years old. There was an attempt to restore their visual function using galanthamine hydrobromide solution at the dosage of 0.1 ml of 0.5% of galanthamine hydrobromide for each year of life. The course of treatment included 15-20 injections. […] This finding gave an impetus to conduct additional research into the restoration of auditory function using acetylholinesterase inhibitors in conjunction with laser stimulation.
# [10] = twin boys, three courses, 2.5 mg twice a day for 20 days
# [11] = 18 patients, 2.5 mg a day with vasodilating treatment, three courses
# [12] = 7 patients, courses repeated every 3-6 months
# [13] = after three courses, 0.625 mg once a day during 25 days
compound,measurement,setting,value
"COc1cc2c(cc1OC)C(=O)C(CC1CCN(Cc3ccccc3)CC1)C2 (stereo not drawn) [ARICEPT®, donepezil hydrochloride]","hearing improved by, in one ear","[1]; each twin, further three courses 2.5 mg twice a day for 25 days, with PERIBEDIL 10 mg twice a day from the 4th course",20-25 dB
same,hearing improved by,"[1]; person, sensorineural hearing loss of 65 dB, 2.5 mg once a day for twenty days, 10 courses over three years",10 dB
same,"hearing improved by, in one ear","[1]; twin boys of 10 years, three courses, 2.5 mg twice a day for 20 days, hydrochloride",10 dB
same,fatiguability,[1]; [10],decreased fatiguability
same,speech,[1]; [10],speech became more understandable
same,hearing improved by,"[2]; 0.625 mg once a day during 20 days, after four courses",25 dB
same,hearing improved by,"[2]; 2.5 mg once a day for 20 days, after 5 courses",30 dB
same,hearing,"[3]; 6 patients, night intake withdrawn, after the fourth course",slight improvement of hearing
same,side effects,"[3]; 6 patients, 2.5 mg twice a day",irritability and sleep disturbances
same,tinnitus,"[3]; 18 of 24 patients 50-65 years, after the first course, 2.5 mg twice a day during 25 days",decrease of tinnitus
same,dizziness,[3]; [11],decrease of dizziness
same,hearing,[3]; [11],improved hearing in one ear
same,hearing in one ear improved by,"[3]; after the first course, 2.5 mg twice a day during 25 days",5-10 dB
same,improvement in hearing,"[4]; 4 children 5-6 years, loss 65-75 dB, 1.25 mg 2 times a day for 20 days, in 1.5 months",5 dB
same,visual function,[4]; after the third course,improved visual function
same,hearing improved by,"[4]; after the third course, 1.25 mg two times a day",10-15 dB
same,hearing improved by,"[4]; two patients, after six months, with PIRIBEDIL 5 mg two times a day",5-10 dB
same,tinnitus,[5]; [12],decrease of tinnitus
same,visual function,[5]; [12],improvement in their visual function
same,effect of further courses,[5]; after 5-6 courses of treatment,no further improvement
same,side effects,"[5]; dosage increased to 5 mg twice a day, with anticonvulsant therapy",headaches and sleep disturbances
same,side effects,[5]; dosage of 2.5 mg a day,didn't produce side effects
same,higher psychic functions,[6]; 56 children 4-6 years,improvement of higher psychic functions
same,most noticeable improvement of phonemic hearing and speech functions observed,"[6]; 56 children 4-6 years, 1.25 mg once a day during 20 days",between the 3d and the 5th courses
same,hearing improved by,"[6]; children with sensorineural hearing loss, 1.25 mg once a day during 20 days, 3 to 8 courses",5-10 dB
same,children who manifested the increase in the intellect,"[6]; starting from the 4th course, preliminary results",85%
same,concentration,[7]; [13],concentration improved
same,hyperkinesias,[7]; [13],some decrease of hyperkinesias
same,hearing,"[7]; four patients 2-5 years, after three courses, 0.625 mg once a day during 25 days",no improvement in hearing
same,hyperkinesia and walking,"[7]; patient with profound hearing loss, after ten courses",Hyperkinesia decreased and the patient began to walk
same,hearing threshold,"[7]; patient, threshold over 95 dB before, after ten courses",90 dB
same,hearing improved by,"[7]; two children, 10 courses, 0.625 mg twice a day for 25 days, three months break",10-15 dB
same,hearing,"[8]; 2 patients, hearing impaired by 30-40 dB",improvement of hearing
same,speech,"[8]; 2 patients, with anticonvulsant therapy",increased legibility of speech
same,vision,[8]; 2 practically blind patients,clear differentiation of the source of light
COc1ccc2c3c1O[C@H]1C[C@@H](O)C=C[C@@]31CCN(C)C2 [galanthamine hydrobromide],auditory function,[9],minor improvement of auditory function

# Source: patent US8012994B1 (priority 2006, dated 2011)
